Measured values reported in US11926580B2, “Hydropersulfide precursors” (THE JOHNS HOPKINS UNIVERSITY, priority 2018, dated 2024).

Columns and labels:
[1] = UPLC-MS analysis of RSSH trapping with N-ethylmaleimide; format: physicochemical; conditions: UPLC-MS
Description: FIGS. 2a and 2b provide graphs of (a) UPLC-MS chromatograms of RSSH generation from 4d (200 μM) in the presence of NEM (4 mM) incubated in pH 7.4 ammonium bicarbonate (100 mM) with DTPA (100 μM) at 37° C. A peak at 3.7 min corresponding to N-ethylmaleamic acid (NEMA), derived from NEM hydrolysis, was observed under these conditions (see SI); (b) MS spectrum (ESI+ mode) of the product eluting at 5.06 min corresponding to 5a with m/z 349.0885 (expected m/z 349.0886).
FIG. 5 provides a graph of UPLC-MS chromatograms of RSSH generation from compound 1 (1 mM) in the presence of NEM (5 mM) incubated in pH 7.4 ammonium bicarbonate buffer containing DTPA (100 μM) for 30 min at 37° C. The asterisk indicates the methyl ester analogue of dialkyl trisulfide 2, which was also formed due to the presence of minor amount of methyl ester analogue of 1. A peak at 3.7 min corresponding to N-ethylmaleamic acid (NEMA), derived from NEM hydrolysis, was observed under these conditions.
RSSH trapping in the presence of N-ethylmaleimide (NEM) was carried out with a Waters Acquity/Xevo-G2 UPLC-MS system equipped with an ACQUITY UPLC BEH C18 column (2.1 mm×50 mm, 1.7 μm). Typically, RSSH precursor (1 eq) was incubated with NEM (5 to 20 eq) in freshly prepared pH 7 4 ammonium bicarbonate buffer (100 mM) containing DTPA (100 μM) at 37° C. An aliquot of the reaction mixture (300 μL) was withdrawn at specified time points, quenched with 0.25% formic acid (300 μL), and filtered through a 0.22 μm filter. The samples were then loaded into vials in an autosampler maintained at 4° C. and analyzed using UPLC-MS as follows: Mobile phase: 0-1 min 90% water+0% ACN+10% formic acid (0.1%); 1-7.5 min gradient up to 10% water+80% ACN+10% formic acid (0.1%); 7.5-8.4 min 10% water+80% ACN+10% formic acid (0.1%); 8.4-8.5 min gradient up to 90% water+0% ACN+10% formic acid (0.1%), 8.5-10 min 90% water+0% ACN+10% formic acid (0.1%). Flow rate=0.3 mL min^−1. The mass signals for products of RSSH trapping with NEM were obtained via deconvolution using MassLynx 4.1 software.
To a solution of NEM (5 mM) in pH 7 4 ammonium bicarbonate (100 mM) with DTPA (100 μM) in a 20-mL scintillation vial, hydropersulfide precursor 1 (1 mM, total reaction volume 3 mL) was added. The resulting mixture was incubated at 37° C. for 30 min. An aliquot of 300 μL reaction mixture was withdrawn, quenched with 300 μL of formic acid (0.25%) and analyzed using UPLC-MS.

[2] = Kinetics of RSSH generation by 1H NMR with NEM trapping; format: physicochemical; conditions: pH 7.4 buffer with 20% MeOD, pH 7.4; read-out: half-life of precursor

SMILES: CC(=O)NC(C(=O)O)C(C)(C)SSC(=N)Nc1ccccc1.Cl (stereo not shown) [Precursor 4d, ((1-acetamido-1-carboxy-2-methylpropan-2-yl)disulfaneyl)(phenylamino)methaniminium chloride]
- RSSH generation (RSS-NEM adduct formation) ([1]; NEM trap, pH 7.4 buffer, 37° C.): clean conversion of 4d to the RSS-NEM adduct 5a
- phenyl cyanamide yield from precursor decomposition ([1]; NEM, pH 7.4, 37° C.): 94%
- melting point: 155 to 157 °C
- half-life [2]: 4.3 min
